Source: patent US4684664A, “Derivatives of β-(4-isocyano-1,2,3,4-diepoxycyclopentyl) acrylic acid” (Kureha Kagaku Kogyo Kabushiki Kaisha, priority 1984, dated 1987)
Converted amounts (≈) assume the structure as drawn.

Tests used:
Type in all cases: cell-based
[1] = test system: Staphylococcus aureus FDA 209PJc-1; test: Antibacterial activity, agar-dilution MIC, organism No. 1; settings: Staphylococcus aureus, FDA209PJC1; Organism No. 1, bouillon-agar; read-out: Minimum Inhibitory Concentration
Description: (§1) Agar-dilution method was used for determination of the antibacterial activity and antifungal activity while using bouillon-agar culture medium, and the minimum inhibitory concentration of the specimen was expressed by μg/ml of the culture medium.

[2] = test system: Staphylococcus aureus Terajima; test: Antibacterial activity, agar-dilution MIC, organism No. 2; settings: Staphylococcus aureus; Organism No. 2, bouillon-agar; read-out: Minimum Inhibitory Concentration
Description: as §1

[3] = test system: Staphylococcus aureus MS 353; test: Antibacterial activity, agar-dilution MIC, organism No. 3; settings: Staphylococcus aureus, MS353; Organism No. 3, bouillon-agar; read-out: Minimum Inhibitory Concentration
Description: as §1

[4] = test system: Streptococcus pyogenes Cook; test: Antibacterial activity, agar-dilution MIC, organism No. 4; settings: Streptococcus pyogenes; Organism No. 4, bouillon-agar; read-out: Minimum Inhibitory Concentration
Description: as §1

[5] = test system: Escherichia coli NIHJ-JC-2; test: Antibacterial activity, agar-dilution MIC, organism No. 5; settings: Escherichia coli, NIHJJC2; Organism No. 5, bouillon-agar; read-out: Minimum Inhibitory Concentration
Description: as §1

[6] = test system: Escherichia coli K12 C600 IAM 1264; test: Antibacterial activity, agar-dilution MIC, organism No. 6; settings: Escherichia coli, IAM1264; Organism No. 6, bouillon-agar; read-out: Minimum Inhibitory Concentration
Description: as §1

[7] = test system: Klebsiella pneumoniae PCI-602; test: Antibacterial activity, agar-dilution MIC, organism No. 7; settings: Klebsiella pneumoniae, PCI602; Organism No. 7, bouillon-agar; read-out: Minimum Inhibitory Concentration
Description: as §1

[8] = test system: Salmonella typhimurium IID 971; test: Antibacterial activity, agar-dilution MIC, organism No. 8; settings: Salmonella enterica; Organism No. 8, bouillon-agar; read-out: Minimum Inhibitory Concentration
Description: as §1

Salmonella typhi 901 = test: Antibacterial activity, agar-dilution MIC, organism No. 9; settings: Salmonella enterica, TYPHI, read-out: Minimum Inhibitory Concentration
Description: as §1

[9] = test system: Salmonella paratyphi-A 1015; test: Antibacterial activity, agar-dilution MIC, organism No. 10; settings: Salmonella enterica, PARATYPHI, read-out: Minimum Inhibitory Concentration
Description: as §1

[10] = test system: Salmonella shottmuelleri 8006; test: Antibacterial activity, agar-dilution MIC, organism No. 11; settings: Salmonella, 8006; Organism No. 11, bouillon-agar; read-out: Minimum Inhibitory Concentration
Description: as §1

[11] = test system: Salmonella enteritidis G 14; test: Antibacterial activity, agar-dilution MIC, organism No. 12; settings: Salmonella enterica, ENTERITIDIS; Organism No. 12, bouillon-agar; read-out: Minimum Inhibitory Concentration
Description: as §1

[12] = test system: Bacillus subtilis ATCC 6633; test: Antibacterial activity, agar-dilution MIC, organism No. 14; settings: Bacillus subtilis, ATCC6633; Organism No. 14, bouillon-agar; read-out: Minimum Inhibitory Concentration
Description: as §1

[13] = test system: Pseudomonas aeruginosa IFO 3445; test: Antibacterial activity, agar-dilution MIC, organism No. 15; settings: Pseudomonas aeruginosa, IFO3445; Organism No. 15, bouillon-agar; read-out: Minimum Inhibitory Concentration
Description: as §1

[14] = test system: Pseudomonas aeruginosa NCTC 10490; test: Antibacterial activity, agar-dilution MIC, organism No. 16; settings: Pseudomonas aeruginosa, NCTC10490; Organism No. 16, bouillon-agar; read-out: Minimum Inhibitory Concentration
Description: as §1

[15] = test system: Pseudomonas aeruginosa PAO 1; test: Antibacterial activity, agar-dilution MIC, organism No. 17; settings: Pseudomonas aeruginosa, PAO1; Organism No. 17, bouillon-agar; read-out: Minimum Inhibitory Concentration
Description: as §1

[16] = test system: Proteus morganii IFO 3848; test: Antibacterial activity, agar-dilution MIC, organism No. 18; settings: Morganella morganii, IFO3848; Organism No. 18, bouillon-agar; read-out: Minimum Inhibitory Concentration
Description: as §1

[17] = test system: Proteus mirabilis IFO 3849; test: Antibacterial activity, agar-dilution MIC, organism No. 19; settings: Proteus mirabilis, IFO3849; Organism No. 19, bouillon-agar; read-out: Minimum Inhibitory Concentration
Description: as §1

Proteus vulgaris OX-19 = test: Antibacterial activity, agar-dilution MIC, organism No. 20; settings: Proteus vulgaris, OX19; Organism No. 20, bouillon-agar; read-out: Minimum Inhibitory Concentration
Description: as §1

Proteus vulgaris HX-19 = test: Antibacterial activity, agar-dilution MIC, organism No. 21; settings: Proteus vulgaris, HX19; Organism No. 21, bouillon-agar; read-out: Minimum Inhibitory Concentration
Description: as §1

[18] = test system: Proteus rettgeri IFO 3850; test: Antibacterial activity, agar-dilution MIC, organism No. 22; settings: Providencia rettgeri, IFO3850; Organism No. 22, bouillon-agar; read-out: Minimum Inhibitory Concentration
Description: as §1

[19] = test system: Enterobacter aerogenes ATCC 13048; test: Antibacterial activity, agar-dilution MIC, organism No. 23; settings: Klebsiella aerogenes, ATCC13048; Organism No. 23, bouillon-agar; read-out: Minimum Inhibitory Concentration
Description: as §1

Enterobacter cloacae 963 = test: Antibacterial activity, agar-dilution MIC, organism No. 24; settings: Enterobacter cloacae, 963; Organism No. 24, bouillon-agar; read-out: Minimum Inhibitory Concentration
Description: as §1

[20] = test system: Micrococcus luteus ATCC 9341; test: Antibacterial activity, agar-dilution MIC, organism No. 25; settings: Micrococcus luteus, ATCC9341; Organism No. 25, bouillon-agar; read-out: Minimum Inhibitory Concentration
Description: as §1

[21] = test system: Streptococcus pyogenes IFO 3340; test: Antibacterial activity, agar-dilution MIC, organism No. 26; settings: Streptococcus pyogenes, IFO3340; Organism No. 26, bouillon-agar; read-out: Minimum Inhibitory Concentration
Description: as §1

[22] = test system: Streptococcus faecium IFO 3826; test: Antibacterial activity, agar-dilution MIC, organism No. 27; settings: Enterococcus faecium, IFO3826; Organism No. 27, bouillon-agar; read-out: Minimum Inhibitory Concentration
Description: as §1

[23] = test system: Mycoplasma pneumoniae IID817; test: Antimycoplasmal activity, MIC by phenol red colour change, organism No. 28; settings: Mycoplasma, IID817; Organism No. 28, PPLO broth + 1% glucose, 37° C.; read-out: Minimum Inhibitory Concentration (MIC)
Description: Mycoplasma pneumoniae IID817 was used as the test microorganism in a culture medium prepared by adding 1% of glucose to "PPLO broth (manufactured by Difco Co.) liquid culture medium" at 37° C. with phenol red as an indicator, thereby culturing the test microorganism.

[24] = test system: Candida albicans IAM 4905; test: Antifungal activity, agar-dilution MIC, organism No. 29; settings: Candida albicans, IAM4905; Organism No. 29, bouillon-agar; read-out: Minimum Inhibitory Concentration
Description: as §1

[25] = test system: Aspergillus niger IFO 6342; test: Antifungal activity, agar-dilution MIC, organism No. 30; settings: Aspergillus niger, IFO6342; Organism No. 30, bouillon-agar; read-out: Minimum Inhibitory Concentration
Description: as §1

Row | Structure (SMILES) | MIC [1] [µg/mL] | MIC [2] [µg/mL] | MIC [3] [µg/mL] | MIC [4] [µg/mL] | MIC [5] [µg/mL] | MIC [6] [µg/mL] | MIC [7] [µg/mL] | MIC [8] [µg/mL] | MIC (Salmonella typhi 901) [µg/mL] | MIC [9] [µg/mL] | MIC [10] [µg/mL] | MIC [11] [µg/mL] | MIC [12] [µg/mL] | MIC [13] [µg/mL] | MIC [14] [µg/mL] | MIC [15] [µg/mL] | MIC [16] [µg/mL] | MIC [17] [µg/mL] | MIC (Proteus vulgaris OX-19) [µg/mL] | MIC (Proteus vulgaris HX-19) [µg/mL] | further results
1 | [C-]#[N+]C12CC3(/C=C/C(=O)Nc4cccc(Cl)c4)OC3C1O2 (stereo not drawn) [compound 41] | 0.2 (≈ 0.661 µM) | 0.39 (≈ 1.29 µM) | 0.1 (≈ 0.33 µM) | > 200 | > 200 | 200 (≈ 661 µM) | < 0.05 | 3.13 (≈ 10.3 µM) | 3.13 (≈ 10.3 µM) | 0.78 (≈ 2.58 µM) | 0.2 (≈ 0.661 µM) | 3.13 (≈ 10.3 µM) | 1.56 (≈ 5.15 µM) | > 200 | > 200 | > 200 | 0.1 (≈ 0.33 µM) | > 200 | 0.78 (≈ 2.58 µM) | < 0.05 | MIC [18]: 3.13 µg/mL (≈ 10.3 µM); MIC [19]: > 200 µg/mL; MIC (Enterobacter cloacae 963): 50 µg/mL (≈ 165 µM); MIC [20]: < 0.05 µg/mL; MIC [21]: 0.39 µg/mL (≈ 1.29 µM); MIC [22]: 3.13 µg/mL (≈ 10.3 µM); MIC [23]: < 0.2 µg/mL; MIC [24]: 0.8 µg/mL (≈ 2.64 µM); MIC [25]: 1.56 µg/mL (≈ 5.15 µM)
2 | [C-]#[N+]C12CC3(/C=C/C(=O)N(C(=O)NC4CCCCC4)C4CCCCC4)OC3C1O2 (stereo not drawn) [Compound No. 25] | 0.1 (≈ 0.25 µM) | 0.78 (≈ 1.95 µM) | 0.78 (≈ 1.95 µM) | 1.56 (≈ 3.9 µM) | 12.5 (≈ 31.3 µM) | 6.25 (≈ 15.6 µM) | 100 (≈ 250 µM) | 100 (≈ 250 µM) | 100 (≈ 250 µM) | 0.1 (≈ 0.25 µM) | 0.1 (≈ 0.25 µM) | 100 (≈ 250 µM) | 0.39 (≈ 0.976 µM) | > 100 | > 100 | > 100 | > 100 | > 200 | 25 (≈ 62.6 µM) | 0.1 (≈ 0.25 µM) | MIC [18]: > 200 µg/mL; MIC [19]: > 100 µg/mL; MIC (Enterobacter cloacae 963): 50 µg/mL (≈ 125 µM); MIC [20]: < 0.05 µg/mL; MIC [21]: 6.25 µg/mL (≈ 15.6 µM); MIC [22]: 6.25 µg/mL (≈ 15.6 µM); MIC [23]: 1.56 µg/mL; MIC [24]: 3.13 µg/mL (≈ 7.83 µM); MIC [25]: 6.25 µg/mL (≈ 15.6 µM)
3 | [C-]#[N+]C12CC3(/C=C/C(=O)Nc4ccccc4Cl)OC3C1O2 (stereo not drawn) [compound 42] | 0.39 (≈ 1.29 µM) | 1.56 (≈ 5.15 µM) | 0.39 (≈ 1.29 µM) | > 200 | > 200 | > 200 | 0.78 (≈ 2.58 µM) | 25 (≈ 82.6 µM) | 12.5 (≈ 41.3 µM) | 6.25 (≈ 20.6 µM) | 3.13 (≈ 10.3 µM) | 25 (≈ 82.6 µM) | 6.25 (≈ 20.6 µM) | > 200 | > 200 | > 200 | 3.13 (≈ 10.3 µM) | > 200 | 3.13 (≈ 10.3 µM) | 0.1 (≈ 0.33 µM) | MIC [18]: > 200 µg/mL; MIC [19]: > 200 µg/mL; MIC (Enterobacter cloacae 963): > 200 µg/mL; MIC [20]: < 0.05 µg/mL; MIC [21]: 1.56 µg/mL (≈ 5.15 µM); MIC [22]: 25 µg/mL (≈ 82.6 µM); MIC [23]: < 0.2 µg/mL; MIC [24]: 1.56 µg/mL (≈ 5.15 µM); MIC [25]: 3.13 µg/mL (≈ 10.3 µM)
